Patent US8003658B2, “Quinazoline derivatives for inhibiting cancer cell growth and method for the preparation thereof” (Hanmi Holdings Co., Ltd., priority 2004, dated 2011)
pIC50: −log10 of the molar value. Like-named read-outs stand apart in the source and are kept apart here.

Columns and labels:
[1] = test system: A431 (ATCC: CRL-1555); assay: Test of cancer cell growth inhibition (SRB), A431; details: read-out: IC50 A431
[2] = test system: SK-Br3 (ATCC: HTB-30); assay: Test of cancer cell growth inhibition (SRB), SK-Br3; details: read-out: IC50 SK-Br-3
[3] = EGFR overexpressed A431, 72 hours, SRB
[4] = Erb-B2 overexpressed SK-Br3, 72 hours, SRB

Structure (SMILES) | pIC50 [1, 3] | pIC50 [2, 4] | pIC50 ([1]; Homo sapiens, A-431, 72 h) | pIC50 ([2]; Homo sapiens, SK-BR-3, 72 h)
Cc1oncc1C(=O)NCCC(=O)Nc1ccc2ncnc(Nc3ccc(OCc4cccc(F)c4)c(Cl)c3)c2c1 [Example 136] | 6.08 | 5.77 |  | 
CSCC(=O)NCCCC(=O)Nc1ccc2ncnc(Nc3ccc(OCc4cccc(F)c4)c(Cl)c3)c2c1 [Example 137, N-{4-[3-chloro-4-(3-fluoro-benzyloxy)phenylamino]-quinazolin-6-yl}-4-(2-methanesulfanyl-acetylamino)-butyramide] | 7.00 | 7.36 |  | 
C[S+]([O-])CC(=O)NCCCC(=O)Nc1ccc2ncnc(Nc3ccc(OCc4cccc(F)c4)c(Cl)c3)c2c1 (stereo not drawn) [Example 138, N-{4-[3-chloro-4-(3-fluoro-benzyloxy)-phenylamino]-quinazolin-6-yl}-4-(2-methanesulfinyl-acetylamino)-butyramide] |  |  | 6.99 | 7.27
C=CC(=O)NCCC(=O)N(CC)c1ccc2ncnc(Nc3ccc(OCc4cccc(F)c4)c(Cl)c3)c2c1 [Example 140, N-[2-({4-[3-chloro-4-(3-fluoro-benzyloxy)-phenylamino]-quinazolin-6-yl}-ethyl-carbamoyl)-ethyl]-acrylamide] |  |  | 6.99 | 6.99
C=CC(=O)NCCC(=O)N(CCCN(C)C)c1ccc2ncnc(Nc3ccc(OCc4cccc(F)c4)c(Cl)c3)c2c1 [Example 141-4, N-{2-[{4-[3-chloro-4-(3-fluoro-benzyloxy)-phenylamino]-quinazolin-6-yl}-(3-dimethylamino-propyl)-carbamoyl]-ethyl}-acrylamide] |  |  | 5.88 | 6.09
C=CC(=O)NCCC(=O)Nc1ccc2ncnc(Nc3ccc(OCc4cccc(C)n4)c(Cl)c3)c2c1 [Example 144, N-(2-{4-[3-chloro-4-(6-methyl-pyridin-2-ylmethoxy)-phenylamino]-quinazolin-6-ylcarbamoyl}-ethyl)-acrylamide] |  |  | 7.14 | 8.10
C=CC(=O)N1C[C@H](OC(C)=O)C[C@H]1C(=O)Nc1ccc2ncnc(Nc3ccc(OCc4ccccn4)c(Cl)c3)c2c1 [Example 148, (3R,5S)-acetic acid 1-acryloyl-5-{4-[3-chloro-4-(pyridin-2-ylmethoxy)-phenylamino]-quinazolin-6-ylcarbamoyl}-pyrrolidin-3-ylester] |  |  | 7.47 | 8.40
C=CC(=O)N1C[C@H](O)C[C@H]1C(=O)Nc1ccc2ncnc(Nc3ccc(OCc4ccccn4)c(Cl)c3)c2c1 [Example 149, (2S,4R)-1-acryloyl-4-hydroxyl-pyrrolidine-2-carboxylic acid {4-[3-chloro-4-(pyridin-2-ylmethoxy)-phenylamino]-quinazolin-6-yl}-amide] |  |  | 7.27 | 8.70
C=CC(=O)N1C[C@H](SCC)C[C@H]1C(=O)Nc1ccc2ncnc(Nc3ccc(OCc4ccccn4)c(Cl)c3)c2c1 [Example 150, (2S,4R)-1-acryloyl-4-ethylsulfanyl-pyrrolidine-2-carboxylic acid {4-[3-chloro-4-(pyridin-2-ylmethoxy)-phenylamino]-quinazolin-6-yl}-amide] |  |  | 7.44 | 8.22
C=CC(=O)N1C[C@H](N(C)C)C[C@H]1C(=O)Nc1ccc2ncnc(Nc3ccc(OCc4ccccn4)c(Cl)c3)c2c1 [Example 151, (2S,4R)-1-acryloyl-4-dimethylamino-pyrrolidine-2-carboxylic acid {4-[3-chloro-4-(pyridin-2-ylmethoxy)-phenylamino]-quinazolin-6-yl}-amide] |  |  | 6.98 | 8.52
C=CC(=O)N1CCC[C@H]1C(=O)Nc1ccc2ncnc(Nc3ccc(OCc4cccnc4)c(Cl)c3)c2c1 [Example 152, (2S)-1-acryloyl-pyrrolidine-2-carboxylic acid {4-[3-chloro-4-(pyridin-3-ylmethoxy)-phenylamino]-quinazolin-6-yl}-amide] |  |  | 6.78 | 8.40
C=CC(=O)N1CCC[C@H]1C(=O)Nc1ccc2ncnc(Nc3ccc(OCc4ccncc4)c(Cl)c3)c2c1 [Example 153, (2S)-1-acryloyl-pyrrolidine-2-carboxylic acid {4-[3-chloro-4-(pyridin-4-ylmethoxy)-phenylamino]-quinazolin-6-yl}-amide] |  |  | 6.40 | 7.54
C=CC(=O)N1CCCC1CC(=O)Nc1ccc2ncnc(Nc3ccc(OCc4ccccn4)c(Cl)c3)c2c1 (stereo not drawn) [Example 154, 2-(1-acryloyl-pyrrolidin-2-yl)-N-{4-[3-chloro-4-(pyridin-2-ylmethoxy)-phenylamino]-quinazolin-6-yl}-acetamide] |  |  | 7.07 | 8.30
C=CC(=O)N1CCC(C(=O)Nc2ccc3ncnc(Nc4ccc(OCc5ccccn5)c(Cl)c4)c3c2)C1 (stereo not drawn) [Example 155, 1-acryloyl-pyrrolidine-3-carboxylic acid {4-[3-chloro-4-(pyridin-2-ylmethoxy)-phenylamino]-quinazolin-6-yl}-amide] | 6.46 |  |  | 7.92
C=CC(=O)N1CCC(C(=O)Nc2ccc3ncnc(Nc4ccc(OCc5ccccn5)c(Cl)c4)c3c2)CC1 [Example 156, 1-acryloyl-piperidine-4-carboxylic acid {4-[3-chloro-4-(pyridin-2-ylmethoxy)-phenylamino]-quinazolin-6-yl}-amide] | 6.29 |  |  | 7.72
C=CC(=O)N1CCC[C@H]1C(=O)Nc1ccc2ncnc(Nc3ccc(Oc4ccc(C)nc4)c(C)c3)c2c1 [Example 157, (2S)-1-acryloyl-pyrrolidine-2-carboxylic acid {4-[3-methyl-4-(6-methyl-pyridin-3-yloxy)-phenylamino]-quinazolin-6-yl}-amide] |  |  | 5.25 | 6.91
C#Cc1cccc(Nc2ncnc3ccc(NC(=O)[C@@H]4CCCN4C(=O)C=C)cc23)c1 [Example 158, (2S)-1-acryloyl-pyrrolidine-2-carboxylic acid [4-(3-ethynyl-phenylamino)-quinazolin-6-yl]-amide] |  |  | 6.23 | 7.32
C=CC(=O)N1CCC[C@H]1C(=O)Nc1ccc2ncnc(Nc3ccc(F)c(Cl)c3)c2c1 [Example 159, (2S)-1-acryloyl-pyrrolidine-2-carboxylic acid [4-(3-chloro-4-fluoro-phenylamino)-quinazolin-6-yl]-amide] |  |  | 6.34 | 6.65
C=CC(=O)N1C[C@H](S(=O)(=O)CC)C[C@H]1C(=O)Nc1ccc2ncnc(Nc3ccc(OCc4ccccn4)c(Cl)c3)c2c1 [Example 160, (2S,4R)-1-acryloyl-4-ethanesulfonyl-pyrrolidine-2-carboxylic acid {4-[3-chloro-4-(pyridin-2-ylmethoxy)-phenylamino]-quinazolin-6-yl}-amide] |  |  | 5.16 | 6.36
C=CC(=O)N1C[C@H](OC)C[C@H]1C(=O)Nc1ccc2ncnc(Nc3ccc(OCc4ccccn4)c(Cl)c3)c2c1 [Example 161, (2S,4R)-1-acryloyl-4-methoxy-pyrrolidine-2-carboxylic acid {4-[3-chloro-4-(pyridin-2-ylmethoxy)-phenylamino]-quinazolin-6-yl}-amide] |  |  | 6.17 | 7.72
C=CC(=O)N1CCCC(C(=O)Nc2ccc3ncnc(Nc4ccc(OCc5ccccn5)c(Cl)c4)c3c2)C1 (stereo not drawn) [Example 162, 1-acryloyl-piperidine-3-carboxylic acid {4-[3-chloro-4-(pyridin-2-ylmethoxy)-phenylamino]-quinazolin-6-yl}-amide] | 6.54 |  |  | 7.55
